{"source": "patent EP4480494A1", "about": "“COMPOSITION FOR USE IN TREATMENT OF CANCER, INFLAMMATORY DISEASES, OR OBESITY, AND USE THEREOF” (National University Corporation Tokyo Medical and Dental …, priority 2022, dated 2023)", "key": {"ZCCHC24 [1]": {"system": "ZCCHC24", "assay": "cells", "format": "cell-based", "conditions": "Homo sapiens; HiBiT tag-inserted cells, 24 hours; read-out: EC50 concentration for the maximal increase in the ZCCHC24 expression", "procedure": "1 × 10^4 HiBiT tag-inserted cells were seeded in a 96-well plate. […] After 24 hours, the medium was discarded, and 12.5 µL PBS, 12.5 µL Lytic Buffer from the HiBiT kit (Promega), 0.5 µL substrate, and 0.25 µL LgBiT were added. After 10 minutes of reaction at room temperature, luminescence was measured using ARVO X3 (Perkin Elmer)."}, "MDAMB231": {"system": "MDAMB231", "assay": "cells", "format": "cell-based", "conditions": "Homo sapiens, MDA-MB-231; MDAMB231, 48 hours, Cell Titer Glo; read-out: IC50 for maximal cell survival inhibition", "procedure": "2 × 10^3 HiBiT tag-inserted cells were seeded in a 96-well plate. […] After 48 hours, 20 µL of Cell Titer Glo (Promega) was added. After 30 minutes of reaction at 37°C, the […] was measured using ARVO X3 (Perkin Elmer)."}, "ZEB1": {"system": "ZEB1", "assay": "qPCR analysis on JQ1-treated MDAMB231", "format": "cell-based, human", "conditions": "MDAMB231, 100 nM JQ1, 24 hours"}, "MDAMB231 cells": {"system": "MDAMB231 cells", "format": "cell-based, human", "conditions": "100 nM JQ1, 1 µM PD407824 or both, 24 hours, CD44/NRP1 staining", "procedure": "2 × 10^5 MDAMB231 cells were seeded in a 6-well plate. […] Twenty-four hours later, cells were collected, stained with CD44-PE (IM7, Biolegend) and NRP1-APC (FAB3870A, R&D), and subjected to FACS analysis using FACS Calibur (BD)."}, "ZCCHC24 [2]": {"system": "ZCCHC24", "assay": "Compound screening using HiBiT tag knock-in cells (ZCCHC24 expression reporter)", "format": "cell-based, human", "conditions": "LOPAC compounds at 1 µM for 24 hours; HiBiT tag-inserted MDAMB231 reporter cells", "procedure": "HiBiT tagged-MDAMB231 cells with were produced using the procedure below. First, crRNA (*14 (SEQ ID NO: 14) in Table 1) (IDT) was resuspended in the Nuclease-Free Duplex buffer (IDT) to a final concentration of 100 µM, and incubated at 95°C for 5 minutes together with the same amount of tracrRNA (IDT). The oligo complex was then slowly cooled down to room temperature and incubated with ALT-R Cas9 Nuclease V3 (61 µM) (Integrated DNA Technologies, IA, USA) for 20 minutes at room temperature to form the Cas9 complex. Next, a single-stranded DNA oligo (*15 (SEQ ID NO: 15) in Table 1) (comprising the HiBiT sequence and a sequence complementary to the sequence of the C-terminal region of ZCCHC24) and Cas9 complex were co-transfected into MDAMB231 cells by an electroporation method using the NEPA21 super electroporator ([…]). After single cell cloning, cells inserted with the HiBiT tag were collected.\nThe compound screening procedure is as follows. HiBiT tag-inserted cells were plated at 1 × 10^4 cells in a 96-well plate, cultured for 24 hours, and then reacted with a low molecular compound library (LOPAC; Sigma Aldrich) at 1 µM (final concentration) for 24 hours. After the culture medium was discarded, cells were incubated with 12.5 µL PBS, 12.5 µL lysis buffer (Promega), 0.5 µL substrate (Promega), and 0.25 µL LgBiT (Promega) for 10 minutes at room temperature in the dark. The luminescence intensity was measured using ARVO X3 (Perkin Elmer).\nAs mentioned above, ZCCHC24 is strongly expressed in cancer stem cell-like cells, and maintains the expression of genes important for maintaining cancer stemness by directly binding to the mRNA of these genes. Therefore, in order to clarify the expression induction mechanism of ZCCHC24, labeled reporter cells were created by inserting a HiBiT tag into the C terminus of ZCCHC24, 1280 types of compounds in LOPAC (Sigma Aldrich) were administered to these reporter cells at a concentration of 1 µM for 24 hours, and compound screening was performed (Figure 17A). […]"}}, "data": [{"smiles": "Cc1sc2c(c1C)C(c1ccc(Cl)cc1)=NC(CC(=O)OC(C)(C)C)c1nnc(C)n1-2", "note": "(stereo not shown) [JQ1]", "values": [{"measurement": "EC50", "setting": "ZCCHC24 [1]", "value": "~0.05", "unit": "µM"}, {"measurement": "IC50", "setting": "MDAMB231", "value": "~0.1", "unit": "µM"}, {"measurement": "expression of ZEB1", "setting": "ZEB1", "value": "dramatically increased"}, {"measurement": "cancer stem cell-like population", "setting": "MDAMB231 cells", "value": "no decrease"}]}, {"smiles": "CC[C@@]1(O)C(=O)OCc2c1cc1n(c2=O)Cc2cc3ccccc3nc2-1", "note": "[camptothecin]", "values": [{"measurement": "Z score (ZCCHC24 expression)", "setting": "ZCCHC24 [2]", "value": "up-regulators (compounds with Z score > 3.0 above were defined as up-regulators)"}]}, {"smiles": "CC(=O)[C@]1(O)Cc2c(O)c3c(c(O)c2[C@@H](O[C@H]2C[C@H](N)[C@H](O)[C@H](C)O2)C1)C(=O)c1ccccc1C3=O", "note": "[idarubicin]", "values": [{"measurement": "Z score (ZCCHC24 expression)", "setting": "ZCCHC24 [2]", "value": "up-regulators (compounds with Z score > 3.0 above were defined as up-regulators)"}]}, {"smiles": "COc1cc2c[n+](C)c3c4cc5c(cc4ccc3c2cc1OC)OCO5", "note": "[nitidine]", "values": [{"measurement": "Z score (ZCCHC24 expression)", "setting": "ZCCHC24 [2]", "value": "up-regulators (compounds with Z score > 3.0 above were defined as up-regulators)"}]}]}
